Source: patent publication US20070299065A1, “Tetrahydropyran Derivatives as Antidiabetics” (MERCK PATENT GMBH, priority 2004, published 2007)

melting point: 174 °C
SMILES: CCc1ccn(Cc2ccccc2O[C@@H]2O[C@H](CO)[C@@H](O)[C@H](O)[C@H]2O)c(=O)c1 [compound 1, 4-ethyl-1-[2-((2S,3R,4S,5S,6R)-3,4,5-trihydroxy-6-hydroxymethyltetrahydropyran-2-yloxy)benzyl]-1H-pyridin-2-one]
